What was measured:
Settings in all cases: 72 h
Calu-3 [1] = test: drug sensitivity score (DSS) for viability; higher = more toxic; extreme values may be limits of the assay
HepG2 [2] = test: as above
U2OS [3] = test: as above
Caco-2 [4] = test: as above
Vero E6 [5] = test: as above
Calu-3 [6] = test: relative viability EC50 (midpoint between 100% and the lowest measured viability); higher = less toxic
HepG2 [7] = test: as above
Caco-2 [8] = test: as above
Vero E6 [9] = test: as above
Calu-3 [10] = test: cell viability relative to DMSO; higher = less toxic
HepG2 [11] = test: as above
U2OS [12] = test: as above
Caco-2 [13] = test: as above
Vero E6 [14] = test: as above
U2OS [15] = test: relative viability EC50 (midpoint between 100% and the lowest measured viability); higher = less toxic

Compound	drug sensitivity score (Calu-3 [1])	drug sensitivity score (HepG2 [2])	drug sensitivity score (U2OS [3])	drug sensitivity score (Caco-2 [4])	drug sensitivity score (Vero E6 [5])	relative viability EC50 (Calu-3 [6]) [µM]	relative viability EC50 (HepG2 [7]) [µM]	relative viability EC50 (Caco-2 [8]) [µM]	relative viability EC50 (Vero E6 [9]) [µM]	cell viability (Calu-3 [10]; 1 nM) [%]	cell viability (Calu-3 [10]; 10 nM) [%]	cell viability (Calu-3 [10]; 100 nM) [%]	cell viability (Calu-3 [10]; 1000 nM) [%]	cell viability (Calu-3 [10]; 10000 nM) [%]	cell viability (HepG2 [11]; 1 nM) [%]	cell viability (HepG2 [11]; 10 nM) [%]	cell viability (HepG2 [11]; 100 nM) [%]	cell viability (HepG2 [11]; 1000 nM) [%]	cell viability (HepG2 [11]; 10000 nM) [%]	cell viability (U2OS [12]; 1 nM) [%]	cell viability (U2OS [12]; 10 nM) [%]	cell viability (U2OS [12]; 100 nM) [%]	cell viability (U2OS [12]; 1000 nM) [%]	cell viability (U2OS [12]; 10000 nM) [%]	cell viability (Caco-2 [13]; 1 nM) [%]	cell viability (Caco-2 [13]; 10 nM) [%]	cell viability (Caco-2 [13]; 100 nM) [%]	cell viability (Caco-2 [13]; 1000 nM) [%]	cell viability (Caco-2 [13]; 10000 nM) [%]	cell viability (Vero E6 [14]; 1 nM) [%]	cell viability (Vero E6 [14]; 10 nM) [%]	cell viability (Vero E6 [14]; 100 nM) [%]	cell viability (Vero E6 [14]; 1000 nM) [%]	cell viability (Vero E6 [14]; 10000 nM) [%]	relative viability EC50 (U2OS [15]) [µM]
O=c1cc(-c2ccccc2)oc2cc(O)c(O)c(O)c12 [baicalein]	0	0	2.6	0.9	0	> 10	> 10	> 10	> 10	105	101	103	103	87.5	92.1	102	90.8	101	104	99.9	97.5	101	95.2	62.6	96.2	99.7	96.9	99.2	77.1	91.4	98.3	93.1	97	104	–
CCCCCCCCCCCCCCCC(=O)OC[C@H](COP(=O)([O-])OCC[N+](C)(C)C)OC(=O)CCCCCCCCCCCCCCC [colfosceril-palmitate]	0.2	0	0	1.9	0	> 10	> 10	–	> 10	100	103	98.1	99.2	86.9	97.5	108	93.3	101	99.7	102	103	94.8	101	95.9	115	113	101	95.7	71.7	102	97.3	96.7	95.6	95.6	> 10
CC(=O)OCC(=O)[C@@]1(O)CC[C@H]2[C@@H]3CCC4=CC(=O)C=C[C@]4(C)[C@@]3(Cl)[C@@H](Cl)C[C@@]21C [dichlorisone-acetate]	0	0	–	0	0	> 10	> 10	> 10	> 10	98.9	107	100	89.2	102	96.4	94.5	99	99.3	92.4	–	–	–	–	–	105	103	99.7	105	110	105	102	102	98.7	105	–
O=C(Cc1ccc(-c2ccccc2)cc1)Nc1ccccn1 [difenpiramide]	0	2.4	–	0.2	0	> 10	3.89	> 10	> 10	107	99.3	96.9	96.4	102	117	118	109	110	43.6	–	–	–	–	–	98.4	107	100	107	82.9	106	111	104	103	98.5	–

Reference: the supplement of paper PMC13380429
